We go through 42 molecules from ChEMBL document CHEMBL5335870, “Discovery of Hepatitis B Virus Surface Antigen Suppressor GS-8873” (ACS Med Chem Lett, 2024).

Active and inactive are the calls of the source. No cut-off for these calls is given here.

The term EC50 denotes the concentration at which the effect is half-maximal. A word on the clearance: it is a measure of how efficiently the substance is removed, as volume per time. In general, logD refers to the decadic logarithm of the distribution of all forms, ionised or not, between an organic phase and buffer at a given pH.

Data set [1] concerns Hepatitis B virus. Description: Antiviral activity against genotype D HBV infected in sodium taurocholate co-transporting polypeptide receptor-expressing stable HepG2 cell line assessed as suppression of HBsAg level incubated for 5 days by multiplex chemiluminescent MSD assay. The data set is classed as functional, organism-based. To be noted: HepG2, 120 h.
Data set [2] in a line: Clearance in Sprague-Dawley rat at […], iv measured after 24 hrs by LC/MS/MS method. It counts as ADME, organism-based. To be noted: in vivo.
Data set [3] in a line: Oral bioavailability in Sprague-Dawley rat after 24 hrs by LC/MS/MS method. The conditions noted are these: in vivo. It counts as ADME, organism-based.
Data set [4] concerns Primary hepatocyte. Description: Effect on cccDNA level in HBV infected primary human hepatocyte at 0.5 uM media replaced for every 2 to 3 days incubated for 12 days by Southern blot analysis. The conditions noted are these: Hepatitis B virus, time 12.0 day. It counts as functional, cell-based.
The nature of data set [5]: Lipophilicity, logD of the compound. It counts as physicochemical. To be noted: octanol/water.
The nature of data set [6]: In vivo clearance in rat. The data set is classed as ADME, organism-based.
Data set [7] can be described thus: In vivo clearance in dog. The data set is classed as ADME, organism-based, Canis lupus familiaris.
Data set [8] can be described thus: In vivo clearance in cynomolgus monkey. It counts as ADME, organism-based, Macaca fascicularis.
Data set [9] can be described thus: Hepatic extraction in rat. To be noted: read-out: ERH. It counts as ADME.
Data set [10] is described as follows: Hepatic extraction in dog. To be noted: read-out: ERH. The data set is classed as ADME, Canis lupus familiaris.
Data set [11] can be described thus: Hepatic extraction in cynomolgus monkey. It counts as ADME, Macaca fascicularis. To be noted: read-out: ERH.
Data set [12] in a line: Oral bioavailability in rat at 5 mg/kg. It counts as ADME, organism-based. To be noted: in vivo.
Data set [13] is described as follows: Oral bioavailability in cynomolgus monkey at 5 mg/kg. The conditions noted are these: in vivo. It counts as ADME, organism-based, Macaca fascicularis.
The subject of data set [14] is Primary hepatocyte. Put plainly: Effect on cccDNA level in HBV infected primary human hepatocyte at 0.25 uM media replaced for every 2 to 3 days incubated for 12 days by Southern blot analysis. It counts as functional, cell-based. To be noted: Hepatitis B virus, time 12.0 day.
Data set [15] can be described thus: Oral bioavailability in dog at 5 mg/kg. It counts as ADME, organism-based, Canis lupus familiaris. The conditions noted are these: in vivo.

Regarding `CC(C)(C)N1Cc2cc(C#CC3CC3)c(Cl)cc2-c2cc(=O)c(C(=O)O)cn21`, the EC50 in data set [1] turned out to be 16 nM.

As to `COCCCOc1cc2c(cc1Cl)-c1cc(=O)c(C(=O)O)cn1N1CCC(C)(C)[C@H]21`, in [1], the EC50 worked out at 12 nM.

For `CC(C)(C)N1Cc2cc(C#Cc3cnc(N4CC5CCC(C4)N5C4COC4)nc3)c(Cl)cc2-c2cc(=O)c(C(=O)O)cn21`, the EC50 in [1] was determined as 2.1 nM. This molecule showed a clearance in [2] of 15 mL/min/kg. In addition, the bioavailability in data set [3] was found to be 30%.

For `COCCCOc1cc2c(cc1Cl)-c1cc(=O)c(C(=O)O)cn1N1CCC[C@H]21`, the EC50 in data set [1] was 55 nM.

Regarding `CC(C)(C)N1Cc2cc(N3CCCC3)c(Cl)cc2-c2cc(=O)c(C(=O)O)cn21`, the EC50 in data set [1] came out at 1 nM.

`COCCCOc1cc2c(cc1Cl)-c1cc(=O)c(C(=O)O)cn1N1[C@@H]2CC1(C)C`: in [1], the EC50 worked out at 4 nM.

For the molecule `COCCCOc1cc2c(cc1Cl)-c1cc(=O)c(C(=O)O)cn1N1[C@@H]2CCC12COC2`, the EC50 in data set [1] was 72 nM.

Take `COCCOCc1cc2c(cc1Cl)-c1cc(=O)c(C(=O)O)cn1N(C(C)(C)C)C2`: in data set [1], the EC50 stood at 210 nM.

`COCCCOc1cc2c(cc1C1COC1)-c1cc(=O)c(C(=O)O)cn1N1[C@@H]2CCC1(C)C`: the EC50 in [1] was 13 nM.

Regarding `COCCCOc1cc2c(cc1OCC(F)F)-c1cc(=O)c(C(=O)O)cn1N1[C@@H]2CCC1(C)C`, in [1], the EC50 came to 5.8 nM. This molecule also gave a clearance in data set [2] of 13.8 mL/min/kg. Besides, the bioavailability in data set [3] came to 58%.

`COCCCOc1cc2c(cc1C1CC1)-c1cc(=O)c(C(=O)O)cn1N1[C@@H]2CCC1(C)C`: in data set [1], the EC50 is 0.78 nM. The clearance in data set [2] was 16.7 mL/min/kg.

Take `C[C@H](Cn1cnc2c(N)ncnc21)OCP(=O)(O)O`: in data set [4], the result was inactive.

Take `COCCCOc1cc2c(cc1Cl)-c1cc(=O)c(C(=O)O)cn1N1[C@H]2CCC1(C)C`: the half-maximal effective concentration (EC50) in data set [1] amounted to 420 nM.

On to `CC(C)(C)N1Cc2cc(OCC3COC3)c(Cl)cc2-c2cc(=O)c(C(=O)O)cn21`, for which the EC50 in data set [1] stood at 7.6 nM. Besides, in data set [2], the clearance was 20 mL/min/kg. In addition, the bioavailability in [3] turned out to be 91%.

In the case of `CC(C)(C)N1Cc2cc(OCCCOc3cnn(C(F)F)c3)c(Cl)cc2-c2cc(=O)c(C(=O)O)cn21`, the EC50 in data set [1] came to 3.9 nM. In data set [2], the clearance is 25 mL/min/kg.

Turning to `COCCCOc1cc2c(cc1Cl)-c1cc(=O)c(C(=O)O)cn1N(C(C)(C)C)[C@@H]2C`, the EC50 in data set [1] is 390 nM.

As for `CN(C)CCCOc1cc2c(cc1Cl)-c1cc(=O)c(C(=O)O)cn1N(C(C)(C)C)C2`, the EC50 in [1] is 620 nM.

As to `COCCCOc1cc2c(cc1OC(F)(F)F)-c1cc(=O)c(C(=O)O)cn1N1[C@@H]2CCC1(C)C`, the half-maximal effective concentration (EC50) in data set [1] turned out to be 1.1 nM. The same molecule gave a clearance in data set [2] of 8 mL/min/kg. In data set [3], the bioavailability was 47%.

`COCCCOc1cc2c(cc1Cl)-c1cc(=O)c(C(=O)O)cn1N1[C@@H]2CCC12CC2`: the EC50 in data set [1] was determined as 1 nM.

With `COCCCOc1cc2c(cc1OC(C)(C)C)-c1cc(=O)c(C(=O)O)cn1N1[C@@H]2CCC1(C)C`, the EC50 in data set [1] was determined as 78 nM.

As to `COCCCOc1cc2c(cc1Cl)-c1cc(=O)c(C(=O)O)cn1N1[C@@H]2COCC1(C)C`, in data set [1], the EC50 was 2.9 nM.

Turning to `COCCCOc1cc2c(cc1Cl)-c1cc(=O)c(C(=O)O)cn1N1[C@@H]2CCC1(C)C`, in [1], the EC50 was 1.7 nM. The clearance in data set [2] was 4.5 mL/min/kg. In addition, the bioavailability in [3] came out at 66%.

For the molecule `CCOc1cc2c(cc1OCCCOC)[C@H]1CCC(C)(C)N1n1cc(C(=O)O)c(=O)cc1-2`, the EC50 in data set [1] turned out to be 7.5 nM. In [2], this molecule showed a clearance of 20 mL/min/kg. Further, the bioavailability in data set [3] is above 100%.

Consider `COCCCOc1cc2c(cc1OC(C)C)-c1cc(=O)c(C(=O)O)cn1N1[C@@H]2CCC1(C)C`, for which the EC50 in [1] turned out to be 6.4 nM. Besides, the clearance in data set [2] is 16.2 mL/min/kg. Besides, the bioavailability in [3] amounted to 95%.

For `COCCCOc1cc2c(cc1OCCCOC)[C@H]1CCC(C)(C)N1n1cc(C(=O)O)c(=O)cc1-2`, the EC50 in data set [1] is 11 nM.

As to `CC(C)(C)N1Cc2cc(OCC3CC(F)(F)C3)c(Cl)cc2-c2cc(=O)c(C(=O)O)cn21`, the EC50 in data set [1] came to 12 nM. The clearance in data set [2] was 4.17 mL/min/kg. Also, the bioavailability in data set [3] was determined as 56%.

On to `COCCCOc1cc2c(cc1OC)-c1cc(=O)c(C(=O)O)cn1C(C1(C)CC1)C2` (stereo not given), for which the logD in [5] turned out to be 2.2.

With `COCCCOc1cc2c(cc1Cl)-c1cc(=O)c(C(=O)O)cn1N1[C@@H]2CC[C@@H]1C`, the EC50 in data set [1] is 5.4 nM.

Turning to `CC(C)(C)N1Cc2cc(C#Cc3ccc(N4CC5CCC(C4)O5)nc3)c(Cl)cc2-c2cc(=O)c(C(=O)O)cn21`, the concentration for a half-maximal effect (EC50) in [1] came out at 1.5 nM.

As for `COCCCOc1cc2c(cc1Cl)-c1cc(=O)c(C(=O)O)cn1N1[C@@H]2CCCC1(C)C`, in [1], the EC50 was determined as 2 nM.

For `CCc1cc2c(cc1OCCCOC)[C@H]1CCC(C)(C)N1n1cc(C(=O)O)c(=O)cc1-2`, the EC50 in data set [1] worked out at 0.45 nM.

Take `COCCCOc1cc2c(cc1Cl)-c1cc(=O)c(C(=O)O)cn1N1[C@H](C)CC[C@H]21`: in data set [1], the EC50 amounted to 11 nM.

Turning to `COCCCOc1cc2c(cc1Cl)-c1cc(=O)c(C(=O)O)cn1N(C(C)(C)C)[C@H]2C`, in data set [1], the EC50 turned out to be 97 nM.

With `COCCCOc1cc2c(cc1Cl)-c1cc(=O)c(C(=O)O)cn1[C@H](C(C)(C)C)C2`, the EC50 in [1] turned out to be 150 nM. Moreover, the logD in data set [5] was 2.5. Moreover, the clearance was 5 mL/min/kg in data set [6], 6 mL/min/kg in data set [7] and 2.83 mL/min/kg in data set [8]. The values for the hepatic extraction ratio in [9], in data set [10] and in [11] were 0.071, 0.2 and 0.11, respectively. For the same molecule, the bioavailability in data set [12] is 41%; in data set [13] it was 120%.

As to `COCCCOc1cc2c(cc1S(C)(=O)=O)-c1cc(=O)c(C(=O)O)cn1N1[C@@H]2CCC1(C)C`, the EC50 in data set [1] came out at 52 nM.

As for `COCCCOc1cc2c(cc1Cl)-c1cc(=O)c(C(=O)O)cn1[C@H](C1(C)CC1)C2`, in data set [1], the EC50 was determined as 3.8 nM. In data set [5], this molecule gave a logD of 2.4. The outcome in data set [14] was inactive.

For the molecule `CC(C)(C)N1Cc2cc(-c3ccccn3)c(Cl)cc2-c2cc(=O)c(C(=O)O)cn21`, the EC50 in data set [1] turned out to be 47 nM.

For `COCCCOc1cc2c(cc1OC)-c1cc(=O)c(C(=O)O)cn1[C@H](C(C)C)C2`, the EC50 in data set [1] was found to be 15 nM. The molecule further returned a logD in data set [5] of 2.1. In addition, the clearance in data set [6] is 18.3 mL/min/kg; in [7], 11.2 mL/min/kg; in [8], 11.3 mL/min/kg. Also, the hepatic extraction ratio in data set [9] turned out to be 0.26; in data set [10], 0.37; in [11], 0.43. Also, the bioavailability in [12] was determined as 56%; in data set [15] it was 90%; in [13], 84%.

Consider `COCCCOc1cc2c(cc1Cl)-c1cc(=O)c(C(=O)O)cn1N1CC(C)(C)C[C@H]21`, for which the EC50 in data set [1] was 41 nM.

`COCCCNc1cc2c(cc1Cl)-c1cc(=O)c(C(=O)O)cn1N(C(C)(C)C)C2`: the EC50 in data set [1] stood at 18 nM.

For the molecule `COCCCOc1cc2c(cc1OC(F)F)-c1cc(=O)c(C(=O)O)cn1N1[C@@H]2CCC1(C)C`, the concentration for a half-maximal effect (EC50) in [1] amounted to 0.97 nM. The molecule also showed a clearance in data set [2] of 9 mL/min/kg. The bioavailability in data set [3] came to 60%.

Turning to `COCCCOc1cc2c(cc1OC)-c1cc(=O)c(C(=O)O)cn1N1[C@@H]2CCC1(C)C`, the 50% effective concentration (EC50) in [1] is 2.1 nM. Further, in data set [2], the clearance is 16.7 mL/min/kg. Moreover, in data set [3], the bioavailability is 84%.
